According to patent publication US6558671B1, “Cysteine-depleted peptides recognized by A3-restricted cytotoxic lymphocytes, and uses therefor” (The University of Virginia Patent Foundation, priority 1997, dated 2003):
Entries after “also recorded” stand apart in the source; their conditions may differ. Read-outs that look alike come from different tables or passages of the source. One block for each sequence: values may come before it.

Legend:
[1] = test system: HLA-A1-restricted VMM15 CTL; experiment: 4-hour chromium release assay, peptide-pulsed C1R-A1 targets with VMM15 CTL; format: cell-based, human; conditions: for CTL recognition compared with the wild-type peptide: alanine or serine substituted peptides, FIG. 8; for reconstitution of an epitope for VMM15 CTL / recognition by VMM15 CTL: C1R-A1 cells pulsed with synthetic peptide at 0.1 to 10 uM, FIG. 3; for recognition of peptide-pulsed C1R-A1 cells in dose-titration assay: HPLC-purified peptides, FIG. 7; for recognition by VMM15 CTL in peptide screening: screen of tyrosinase peptides matching the HLA-A1 motif, one experiment with 48 peptides
VMM15 CTL = experiment: Cold target inhibition assay with VMM15 CTL; format: cell-based, human; conditions: for inhibition of lysis of labeled peptide-pulsed targets by unlabeled targets pulsed with the peptide: VMM15 EBV targets pulsed at 20 μg/ml, effector-to-labeled target ratio 10:1, FIG. 9
Experimental: FIG. 9. […] (SEQ ID NO:73) for recognition by VMM15 CTL. […] (SEQ ID NO:79), or no peptide, as indicated. Increasing numbers of these various unlabeled targets were pre-incubated with VMM15 CTL for 1 hour at 37° C. Labeled (hot) targets were then added for an additional 4 hour co-culture at a final effector-to-labeled target ratio of 10:1.
(SEQ ID NO:19), and because of the similar dose-titration curves observed for CTL recognition (FIG. […] (SEQ ID NO:19)) of both peptides adopt a similar conformation when bound to HLA-A1. A cold target inhibition assay was performed with peptide-pulsed target cells to test that hypothesis.

H-Y specific CTL = conditions: cited from earlier work
VMM12 CTL = experiment: 4-hour chromium release assay, peptide-pulsed C1R-A1 targets with VMM12 CTL; format: cell-based, human; conditions: C1R-A1 cells pulsed with peptide at 1 to 0.01 μM; FIG. 4
[2] = C1R-A1 targets, E:T 25:1, FIG. 8A, read-out: half-maximal lysis, nonamer

Sequence: DAEKCDIATDEY [dodecamer with alanine substituted for the cysteine at position 8]
- CTL recognition compared with the wild-type peptide [1]: prevented recognition at every concentration tested

Sequence: KCDISTDEY [nonamer with serine substituted for the cysteine distal to the N-terminus]
- CTL recognition compared with the wild-type peptide [1]: not discernibly more effective than the wild-type peptide

- EC50 ([1]; Example A1-1, read-out: half-maximal lysis): ~1000 nM
Sequence: KCDICTDEY
- reconstitution of an epitope for VMM15 CTL / recognition by VMM15 CTL [1]: reconstitutes an epitope for VMM15 CTL; also recorded: most effective; also recorded: reconstituted
- half-maximal lysis ([1]; Example A1-1): approximately 1 ug/ml
- recognition of peptide-pulsed C1R-A1 cells in dose-titration assay ([1]; E:T 25:1): equally reactive
- recognition by VMM15 CTL in peptide screening [1]: recognized

- EC50 ([1]; C1R-A1 targets, E:T 10:1, FIG. 8B, read-out: half-maximal lysis, dodecamer): ~100 nM
Sequence: DAEKADICTDEY [dodecamer with alanine replacing the cysteine at position 5]
- CTL recognition compared with the wild-type peptide [1]: significantly greater recognition

Sequence: DAEKSDICTDEY [dodecamer with serine replacing the more N-terminal cysteine]
- inhibition of lysis of labeled peptide-pulsed targets by unlabeled targets pulsed with the peptide (VMM15 CTL): competes

Sequence: FIDSYICQV
- effect of cysteinylation of the cysteine on recognition (H-Y specific CTL): improving recognition by one clone, and reducing recognition by another

Sequence: KCDIATDEY [nonamer with alanine substituted for the cysteine distal to the N-terminus]
- CTL recognition compared with the wild-type peptide [1]: not discernibly more effective than the wild-type peptide

Sequence: DAEKCDICTDEY
- inhibition of lysis of peptide-pulsed targets by cold wild-type VMM15 tumor cells (VMM15 CTL; targets pulsed with peptide at 50 μg/ml): can be inhibited
- reconstitution of an epitope for VMM12 CTL (VMM12 CTL): reconstituted an epitope for these VMM12 CTL, although weakly
- reconstitution of an epitope for VMM15 CTL / recognition by VMM15 CTL [1]: recognized; also recorded: reconstituted
- EC50 ([1]; C1R-A1 targets, E:T 10:1, FIG. 8B, read-out: half-maximal sensitization of target cells for lysis, dodecamer): 10000 nM
- recognition by VMM15 CTL in peptide screening [1]: recognized

- EC50 [1, 2]: 2 nM
Sequence: KSDICTDEY [nonamer with serine replacing the cysteine at position 2]
- inhibition of lysis of labeled peptide-pulsed targets by unlabeled targets pulsed with the peptide (VMM15 CTL): similarly inhibited
- CTL recognition compared with the wild-type peptide [1]: significantly greater recognition

Sequence: EKCDICTDEY
- reconstitution of an epitope for VMM15 CTL / recognition by VMM15 CTL [1]: recognized; also recorded: reconstituted
- recognition of peptide-pulsed C1R-A1 cells in dose-titration assay ([1]; E:T 25:1): equally reactive
- recognition by VMM15 CTL in peptide screening [1]: recognized

- EC50 [1, 2]: 20 nM
Sequence: KADICTDEY [nonamer with alanine replacing the cysteine at position 2]
- CTL recognition compared with the wild-type peptide [1]: significantly greater recognition
